Tests used:
Type in all cases: cell-based
human keratinocytes = experiment: Protecting cells against UVB radiation (cell DNA, LDH and PGE2 release); settings: + UV-B 50 mJ/cm^2; for Cell DNA: blank = 100, control + UV-B = 33; for LDH released / PGE2 released: control + UV-B = 100
Method: UVB was selected as the stress factor because the rays produce cutaneous inflammation (erythemas, oedemas) by activating enzymes that release arachidonic acid, such as phospholipase A2 (PLA2) for example. […] The influence of UVB rays on keratinocytes was determined in vitro through the release of cytoplasmatic enzymes, such as LDH (lactate dehydrogenase) for example, which runs parallel to the cell damage and the formation of PGE2. […] The quantity of keratinocytes was determined after trypsination via a cell counter while the LDH concentration was enzymatically determined. The results are set out in Table 4, where they are expressed as the activity in %-rel. against a standard, and represent the mean value of two test series involving double determination.

Propionibacterium acnes = experiment: Agar diffusion method, inhibition zones; settings: filter paper with 20 μl test substance; 18 to 24 h at 37° C., anaerobic
Method: (§1) The antibacterial activity of the test substances was tested by the diffusion method on agar plates or the agar dilution method. In this method, a round filter paper of defined diameter is first impregnated with the test solution and then applied to the surface of an agar plate inoculated beforehand with the test microorganisms. The size of the inhibition zones is then determined after defined times. In particular, it is possible by this method to determine the MIC (Minimum Inhibitory Concentration) as the lowest concentration of test substance with which complete inhibition of the microorganisms can be obtained.
(§2) Agar diffusion method. The inoculum was prepared using a fresh culture in a stationary growth phase (after ca. 18-24 h) in a BHI solution (brain-heart Infusion). The bacterial suspension was adjusted to 0.5 MacFarland units, corresponding to 1.5 10^8 colony-forming units (cfu)/ml; the suspension was then diluted with a sodium chloride solution (1:100) to adjust a value of 1.5 10^6 cfu/ml. Mueller-Hinton agar (Staphylococcus epidermidis, Staphylococcus aureus) and Wilkins-Chalgrens agar containing 5% by weight sheep's blood (Propionibacterium acnes) were then sterilized for 15 mins. at 121° C. and then placed in Petri dishes. 2 to 4 ml of the bacterial suspension were then added to the Petri dishes, followed by drying at room temperature. The filter papers were impregnated with 20 μl of the test substances and applied to the surface of the agar plates. The inoculated Petri dishes were incubated for 18 to 24 h at 37° C. (the Petri dishes containing Propionibacterium acnes under anaerobic conditions) and the antimicrobial activity was then determined by determination of the growth inhibition zones. The results are set out in Table 10 and represent the diameters of the inhibition zones in mm.

[1] = tested on: Staphylococcus epidermidis; experiment: Agar diffusion method, inhibition zones; settings: filter paper with 20 μl test substance; 18 to 24 h at 37° C.
Method: as §1, §2

Staphylococcus aureus = experiment: Agar diffusion method, inhibition zones; settings: filter paper with 20 μl test substance; 18 to 24 h at 37° C.
Method: as §1, §2

Fructose caprate
Cell DNA (human keratinocytes; conc. 0.001 % w/v): 32 %-rel. | LDH released (human keratinocytes; conc. 0.001 % w/v): 68 %-rel. | PGE2 released (human keratinocytes; conc. 0.001 % w/v): 35 %-rel. | Cell DNA (human keratinocytes; conc. 0.003 % w/v): 140 %-rel. | LDH released (human keratinocytes; conc. 0.003 % w/v): 0 %-rel. | PGE2 released (human keratinocytes; conc. 0.003 % w/v): 0 %-rel. | Inhibition zones, Propionibacterium acnes (Propionibacterium acnes): 14 mm | Inhibition zones, Staphylococcus epidermidis [1]: 9 mm | Inhibition zones, Staphylococcus aureus (Staphylococcus aureus): 10 mm

Reference: patent US20050220726A1, “Use of sugar esters in cosmetic and/or pharmaceutical preparations” (priority 2003, published 2005)
